In patent US9580437B2, “Triazolopyrimidine compounds and uses thereof” (Novartis AG, priority 2014, dated 2017):

Assays:
[1] = molecular target: wild type PRC2 (wtPRC2) complex (Homo sapiens (Human), UniProt O75530); experiment: EED LC-MS assay; format: biochemical; details: read-out: (b) IC50 EED LC-MS Qualified
Protocol: A 6 μL solution of 3 μM of the peptide substrate H3K27Me0 (histone H3[21-44]-biotin) in reaction buffer was added to initiate each reaction. […] ELISA (H3K27 Methylation) Assay

EED (1-441)-His protein = EED (1-441)-His protein (Homo sapiens (Human), UniProt O75530); experiment: EED-H3K27Me3 peptide competition binding assay by AlphaScreen; details: read-out: (a) IC50 EED Alphascreen binding Qualified
Source text: EED-H3K27Me3 peptide competition binding assay by AlphaScreen (α-screen)

Sequence of wild type PRC2 (wtPRC2) complex (O75530 whole entry): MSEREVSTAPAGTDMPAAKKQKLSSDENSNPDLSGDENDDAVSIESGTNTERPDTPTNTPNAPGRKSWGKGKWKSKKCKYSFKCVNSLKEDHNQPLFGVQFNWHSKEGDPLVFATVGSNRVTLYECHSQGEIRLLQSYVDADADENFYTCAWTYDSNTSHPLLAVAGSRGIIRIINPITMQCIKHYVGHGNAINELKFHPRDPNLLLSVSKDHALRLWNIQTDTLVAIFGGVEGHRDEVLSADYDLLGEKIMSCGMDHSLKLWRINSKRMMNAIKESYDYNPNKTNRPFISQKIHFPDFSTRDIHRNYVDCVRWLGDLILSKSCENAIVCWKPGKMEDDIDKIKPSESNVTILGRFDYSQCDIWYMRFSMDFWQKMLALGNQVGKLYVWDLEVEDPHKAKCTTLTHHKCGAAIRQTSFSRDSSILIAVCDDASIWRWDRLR
Sequence of wild type PRC2 (wtPRC2) complex (Q15910 whole entry partner): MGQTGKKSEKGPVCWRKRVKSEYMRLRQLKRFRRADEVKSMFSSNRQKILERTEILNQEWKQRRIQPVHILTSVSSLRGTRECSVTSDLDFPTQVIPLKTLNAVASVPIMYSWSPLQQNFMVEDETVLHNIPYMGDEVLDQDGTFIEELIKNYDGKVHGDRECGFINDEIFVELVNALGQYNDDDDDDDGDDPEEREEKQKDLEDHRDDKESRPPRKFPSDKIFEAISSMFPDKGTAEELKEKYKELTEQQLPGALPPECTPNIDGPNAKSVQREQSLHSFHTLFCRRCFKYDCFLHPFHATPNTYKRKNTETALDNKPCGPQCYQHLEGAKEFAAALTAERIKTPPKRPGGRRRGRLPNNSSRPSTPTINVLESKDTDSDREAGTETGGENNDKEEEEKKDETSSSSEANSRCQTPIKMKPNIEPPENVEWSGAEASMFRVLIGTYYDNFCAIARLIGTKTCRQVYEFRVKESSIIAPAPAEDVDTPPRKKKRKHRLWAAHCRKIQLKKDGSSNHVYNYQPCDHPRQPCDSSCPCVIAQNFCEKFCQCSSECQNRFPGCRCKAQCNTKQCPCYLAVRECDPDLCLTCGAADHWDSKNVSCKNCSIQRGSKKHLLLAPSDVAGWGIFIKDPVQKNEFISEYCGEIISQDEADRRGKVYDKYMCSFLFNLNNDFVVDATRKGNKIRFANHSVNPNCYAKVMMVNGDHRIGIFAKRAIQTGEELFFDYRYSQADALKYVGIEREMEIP
Sequence of wild type PRC2 (wtPRC2) complex (Q15022 whole entry partner): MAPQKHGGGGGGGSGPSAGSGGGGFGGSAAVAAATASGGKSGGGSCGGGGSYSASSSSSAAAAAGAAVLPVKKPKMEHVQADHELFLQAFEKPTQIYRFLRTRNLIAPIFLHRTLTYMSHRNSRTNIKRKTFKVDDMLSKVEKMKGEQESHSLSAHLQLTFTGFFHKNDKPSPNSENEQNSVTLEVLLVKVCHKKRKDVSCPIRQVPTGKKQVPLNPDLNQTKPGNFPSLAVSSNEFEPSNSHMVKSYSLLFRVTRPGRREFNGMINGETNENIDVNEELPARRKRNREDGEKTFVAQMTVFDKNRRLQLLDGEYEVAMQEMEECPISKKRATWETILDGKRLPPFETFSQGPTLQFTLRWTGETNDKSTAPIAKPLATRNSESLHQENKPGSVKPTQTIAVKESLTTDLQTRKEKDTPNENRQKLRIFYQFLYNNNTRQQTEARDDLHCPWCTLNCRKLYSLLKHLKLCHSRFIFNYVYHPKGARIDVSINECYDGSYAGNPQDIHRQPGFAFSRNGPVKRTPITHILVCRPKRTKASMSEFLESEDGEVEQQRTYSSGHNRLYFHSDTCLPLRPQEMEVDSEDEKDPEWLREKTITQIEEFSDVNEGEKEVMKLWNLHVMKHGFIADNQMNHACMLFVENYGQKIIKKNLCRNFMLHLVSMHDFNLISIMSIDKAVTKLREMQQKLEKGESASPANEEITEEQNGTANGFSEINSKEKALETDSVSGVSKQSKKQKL
Sequence of EED (1-441)-His protein (O75530 whole entry): as the sequence (O75530 whole entry) above

| Compound | IC50 [1] [nM] | IC50 (EED (1-441)-His protein) [nM] |
| --- | --- | --- |
| Cc1cc(-c2cnc(NCc3cccc4c3CCO4)n3cnnc23)cnc1N1CCOCC1 [Example 73, N-((2,3-dihydrobenzofuran-4-yl)methyl)-8-(5-methyl-6-morpholinopyridin-3-yl)-[1,2,4]triazolo[4,3-c]pyrimidin-5-amine] | 17.4 | 12.5 |
| CCNC(=O)c1ccc(-c2cnc(NCc3cccc4c3CCO4)n3cnnc23)cn1 [Example 114, 5-(5-(((2,3-dihydrobenzofuran-4-yl)methyl)amino)-[1,2,4]triazolo[4,3-c]pyrimidin-8-yl)-N-ethylpicolinamide] | 18.6 | 15.4 |
| CN1CCN(c2cc(-c3cnc(NCc4cccc5c4CCO5)n4cnnc34)ccn2)CC1 [Example 18, N-((2,3-dihydrobenzofuran-4-yl)methyl)-8-(2-(4-methylpiperazin-1-yl)pyridin-4-yl)-[1,2,4]triazolo[4,3-c]pyrimidin-5-amine] | 27.9 | 18.5 |
| c1cncc(-c2cnc(NCc3cccc4occc34)n3cnnc23)c1 [Example 213, N-(benzofuran-4-ylmethyl)-8-(pyridin-3-yl)-[1,2,4]triazolo[4,3-c]pyrimidin-5-amine] | 25.6 | 36.6 |
| CS(=O)(=O)CCOc1ccc(-c2cnc(NCc3cccc4c3CCO4)n3cnnc23)cc1 [Example 75, N-((2,3-dihydrobenzofuran-4-yl)methyl)-8-(4-(2-(methylsulfonyl)ethoxy)phenyl)-[1,2,4]triazolo[4,3-c]pyrimidin-5-amine] | 37.5 | 34 |
| c1cc(CNc2ncc(-c3cncc(N4CCNCC4)c3)c3nncn23)c2c(c1)OCC2 [Example 77, N-((2,3-dihydrobenzofuran-4-yl)methyl)-8-(5-(piperazin-1-yl)pyridin-3-yl)-[1,2,4]triazolo[4,3-c]pyrimidin-5-amine] | 52.3 | 21.6 |
| CN1CCC(S(=O)(=O)c2ccc(-c3cnc(NCc4cccc5occc45)n4cnnc34)cc2)CC1 [Example 220, N-(benzofuran-4-ylmethyl)-8-(4-((1-methylpiperidin-4-yl)sulfonyl)phenyl)-[1,2,4]triazolo[4,3-c]pyrimidin-5-amine] | 21.6 | 14.1 |
| c1cc(CNc2ncc(-c3ccncc3)c3nncn23)c2ccoc2c1 [Example 218, N-(benzofuran-4-ylmethyl)-8-(pyridin-4-yl)-[1,2,4]triazolo[4,3-c]pyrimidin-5-amine] | 26.3 | 38.6 |
| O=CN1CCN(c2ccc(-c3cnc(NCc4cccc5c4CCO5)n4cnnc34)cn2)CC1 [Example 134, 4-(5-(5-(((2,3-dihydrobenzofuran-4-yl)methyl)amino)-[1,2,4]triazolo[4,3-c]pyrimidin-8-yl)pyridin-2-yl)piperazine-1-carbaldehyde] | 30.5 | 17.3 |
| Fc1ccc2c(c1CNc1ncc(-c3cnccc3C(F)(F)F)c3nncn13)CCO2 [Example 136, N-((5-fluoro-2,3-dihydrobenzofuran-4-yl)methyl)-8-(4-(trifluoromethyl)pyridin-3-yl)-[1,2,4]triazolo[4,3-c]pyrimidin-5-amine] | 41.8 | 15.9 |
| Cc1nc(CN(C)C)ccc1-c1cnc(NCc2c(F)ccc3c2CCO3)n2cnnc12 [Example 223, 8-(6-((dimethylamino)methyl)-2-methylpyridin-3-yl)-N-((5-fluoro-2,3-dihydrobenzofuran-4-yl)methyl)-[1,2,4]triazolo[4,3-c]pyrimidin-5-amine] | 18.4 | 8.4 |
| Cc1ccc(-c2cnc(NCc3c(F)ccc4c3CCO4)n3cnnc23)cn1 [Example 57, N-((5-fluoro-2,3-dihydrobenzofuran-4-yl)methyl)-8-(6-methylpyridin-3-yl)-[1,2,4]triazolo[4,3-c]pyrimidin-5-amine] | 18.6 | 8.4 |
| O=CN1CCN(CCc2ccc(-c3cnc(NCc4cccc5c4CCO5)n4cnnc34)cn2)CC1 [Example 107, 4-(2-(5-(5-(((2,3-dihydrobenzofuran-4-yl)methyl)amino)-[1,2,4]triazolo[4,3-c]pyrimidin-8-yl)pyridin-2-yl)ethyl)piperazine-1-carbaldehyde] | 25 | 12.4 |

Molecules with a lower IC50 [1], results first:

| IC50 [1] [nM] | IC50 (EED (1-441)-His protein) [nM] | Compound |
| --- | --- | --- |
| 16.1 | 12.4 | Cc1nn(C2CC2)c(C)c1-c1cnc(NCc2c(F)ccc3c2CCO3)n2cnnc12 [Example 179, 8-(1-cyclopropyl-3,5-dimethyl-1H-pyrazol-4-yl)-N-((5-fluoro-2,3-dihydrobenzofuran-4-yl)methyl)-[1,2,4]triazolo[4,3-c]pyrimidin-5-amine] |
| 15.3 | 9.9 | Fc1ccc2c(c1CNc1ncc(-c3ccc(N4CCSCC4)nc3)c3nncn13)CCO2 [Example 91, N-((5-fluoro-2,3-dihydrobenzofuran-4-yl)methyl)-8-(6-thiomorpholinopyridin-3-yl)-[1,2,4]triazolo[4,3-c]pyrimidin-5-amine] |
| 13.1 | 3.8 | Fc1ccc2c(c1CNc1ncc(-c3cncnc3C(F)F)c3nncn13)CCO2 [Example 191, 8-(4-(difluoromethyl)pyrimidin-5-yl)-N-((5-fluoro-2,3-dihydrobenzofuran-4-yl)methyl)-[1,2,4]triazolo[4,3-c]pyrimidin-5-amine] |
| 7 | 4.5 | Fc1ccc2c(c1CNc1ncc(-c3cnn(C4CC4)c3)c3nncn13)CCO2 [Example 150, 8-(1-cyclopropyl-1H-pyrazol-4-yl)-N-((5-fluoro-2,3-dihydrobenzofuran-4-yl)methyl)-[1,2,4]triazolo[4,3-c]pyrimidin-5-amine] |
| 13.2 | 26 | CC1CCCN1c1ccc(-c2cnc(NCc3cccc4c3CCO4)n3cnnc23)cn1 (stereo not drawn) [Example 96, N-((2,3-dihydrobenzofuran-4-yl)methyl)-8-(6-(2-methylpyrrolidin-1-yl)pyridin-3-yl)-[1,2,4]triazolo[4,3-c]pyrimidin-5-amine] |
| 7.9 | 7.3 | Cc1c(-c2cnc(NCc3c(F)ccc4c3CCO4)n3cnnc23)ccnc1F [Example 180, N-((5-fluoro-2,3-dihydrobenzofuran-4-yl)methyl)-8-(2-fluoro-3-methylpyridin-4-yl)-[1,2,4]triazolo[4,3-c]pyrimidin-5-amine] |
| 16.5 | 8.6 | Cc1cc(S(C)(=O)=O)ccc1-c1cnc(NCc2c(F)ccc3c2CCO3)n2cnnc12 [Example 128, N-((5-fluoro-2,3-dihydrobenzofuran-4-yl)methyl)-8-(2-methyl-4-(methylsulfonyl)phenyl)-[1,2,4]triazolo[4,3-c]pyrimidin-5-amine] |
| 5.1 | 2.4 | COc1ccc(-c2cnc(NCc3c(F)ccc4c3CCO4)n3cnnc23)cn1 [Example 142, N-((5-fluoro-2,3-dihydrobenzofuran-4-yl)methyl)-8-(6-methoxypyridin-3-yl)-[1,2,4]triazolo[4,3-c]pyrimidin-5-amine] |
| 7.3 | 5.9 | Cc1ccc(-c2cnc(NCc3c(F)ccc4c3CCO4)n3cnnc23)c(C(F)F)n1 [Example 201, 8-(2-(difluoromethyl)-6-methylpyridin-3-yl)-N-((5-fluoro-2,3-dihydrobenzofuran-4-yl)methyl)-[1,2,4]triazolo[4,3-c]pyrimidin-5-amine] |
| 12.8 | 5.2 | CN(C)C(=O)c1ccc(-c2cnc(NCc3cccc4c3CCO4)n3cnnc23)cn1 [Example 95, 5-(5-(((2,3-dihydrobenzofuran-4-yl)methyl)amino)-[1,2,4]triazolo[4,3-c]pyrimidin-8-yl)-N,N-dimethylpicolinamide] |
| 11.2 | 4.6 | Fc1ccc2c(c1CNc1ncc(-c3cccnc3C(F)F)c3nncn13)CCO2 [Example 168, 8-(2-(difluoromethyl)pyridin-3-yl)-N-((5-fluoro-2,3-dihydrobenzofuran-4-yl)methyl)-[1,2,4]triazolo[4,3-c]pyrimidin-5-amine] |
| 11.8 | 2.4 | COc1cc(-c2cnc(NCc3c(F)ccc4c3CCO4)n3cnnc23)ccn1 [Example 145, N-((5-fluoro-2,3-dihydrobenzofuran-4-yl)methyl)-8-(2-methoxypyridin-4-yl)-[1,2,4]triazolo[4,3-c]pyrimidin-5-amine] |
| 15.9 | 7.9 | CS(=O)(=O)c1ccc(-c2cnc(NCc3cccc4c3CCO4)n3cnnc23)cc1 [Example 12, N-((2,3-dihydrobenzofuran-4-yl)methyl)-8-(4-(methylsulfonyl)phenyl)-[1,2,4]triazolo[4,3-c]pyrimidin-5-amine] |
| 6.7 | 5.9 | CCc1ccc(-c2cnc(NCc3c(F)ccc4c3CCO4)n3cnnc23)c(C)n1 [Example 229, 8-(6-ethyl-2-methylpyridin-3-yl)-N-((5-fluoro-2,3-dihydrobenzofuran-4-yl)methyl)-[1,2,4]triazolo[4,3-c]pyrimidin-5-amine] |
| 7.2 | 4.9 | Cc1nc(C2CC2)ncc1-c1cnc(NCc2c(F)ccc3c2CCO3)n2cnnc12 [Example 8, 8-(2-cyclopropyl-4-methylpyrimidin-5-yl)-N-((5-fluoro-2,3-dihydrobenzofuran-4-yl)methyl)-[1,2,4]triazolo[4,3-c]pyrimidin-5-amine] |
| 14 | 11.7 | Cc1cc(C)c(-c2cnc(NCc3c(F)ccc4c3CCO4)n3cnnc23)cn1 [Example 222, 8-(4,6-dimethylpyridin-3-yl)-N-((5-fluoro-2,3-dihydrobenzofuran-4-yl)methyl)-[1,2,4]triazolo[4,3-c]pyrimidin-5-amine] |
| 7.7 | 7.5 | Cc1cc(C2CC2)ncc1-c1cnc(NCc2c(F)ccc3c2CCO3)n2cnnc12 [Example 173, 8-(6-cyclopropyl-4-methylpyridin-3-yl)-N-((5-fluoro-2,3-dihydrobenzofuran-4-yl)methyl)-[1,2,4]triazolo[4,3-c]pyrimidin-5-amine] |
